Reference: US9073895B2 (Boehringer Ingelheim International GmbH, priority 2010, dated 2015)

How the values were obtained:
[1] = system: synthesis of LTB4 in human whole blood; assay: Human whole blood LTB4 production inhibition assay; assay type: cell-based; details: heparinized human whole blood, calcimycin 20 μM, plasma LTB4; read-out: HuWB IC50
Outline: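 Readout: plasma LTB4 by antibody-based HTRF. Compound added to heparinized human whole blood, 15 min 37° C; calcimycin 20 μM final (PBS pH 7.4), 30 min 37° C; spun 1500×g 5 min, plasma taken.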

[2] = target: T1, recombinant human FLAP protein (Homo sapiens, UniProt P20292); assay: FLAP binding assay (SPA, displacement of [125I]L-691,831); details: membranes of sf9 cells expressing human FLAP, [125I]L-691,831 probe; read-out: hFLAP binding IC50
T1 construct: made in house; host or cells: Sf9 insect cells (membrane fraction, 100,000 x g pellet)
T1 sequence (P20292 1-161): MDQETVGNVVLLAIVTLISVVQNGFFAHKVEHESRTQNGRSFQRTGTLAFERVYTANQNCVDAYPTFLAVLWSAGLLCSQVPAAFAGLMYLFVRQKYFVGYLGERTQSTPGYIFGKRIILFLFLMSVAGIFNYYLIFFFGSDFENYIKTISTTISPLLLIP
Outline: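 Membranes from sf9 cells expressing human FLAP (5 μg/well) were bound to WGA SPA beads (200 μg/well). Nonspecific binding was defined with 10 μM unlabelled L-691,831.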

| IC50 [1] [nM] | IC50 [2] [nM] | Structure (SMILES) |
| --- | --- | --- |
| 930 | 18 | Nc1ncc(-c2ccc(C3(C(=O)Nc4ccc(Oc5ccccc5)cn4)CCOCC3)cc2)cn1 [Example 173, 4-[4-(2-aminopyrimidin-5-yl)phenyl]-N-(5-phenoxypyridin-2-yl)tetrahydro-2H-pyran-4-carboxamide] |
| 686 | 18.1 | O=C(Nc1ccc(Oc2ccccc2)cn1)C1(c2ccc(-c3cnc4[nH]ccc4c3)cc2)CCOCC1 [Example 174, N-(5-phenoxypyridin-2-yl)-4-[4-(1H-pyrrolo[2,3-b]pyridin-5-yl)phenyl]tetrahydro-2H-pyran-4-carboxamide] |
| 1280 | 22 | COc1cncc(-c2ccc(NC(=O)C3(c4ccc(-c5cnc6c(c5)CCN6)cc4)CCOCC3)nc2)c1 [Example 175, 4-[4-(2,3-dihydro-1H-pyrolo[2,3-b]pyridin-5-yl)phenyl]-N-(5'-methoy-3,3'-bipyridin-6-yl)tetrahydro-2H-pyran-4-carboxamide] |
| 712 | 6.65 | Cc1nc(-c2ccc(NC(=O)C3(c4ccc(-c5cnc(N)c(CO)c5)cc4)CCOCC3)nc2)cs1 [Example 176, 4-{4-[6-amino-5-(hydroxymethyl)pyridin-3-yl]phenyl}-N-[5-(2-methyl-1,3-thiazol-4-yl)pyridin-2-yl]tetrahydro-2H-pyran-4-carboxamide] |
| 217 | 5.1 | Nc1ncc(-c2ccc(C3(C(=O)Nc4ccncc4)CCC3)cc2)cn1 [Example 177, 1-[4-(2-aminopyrimidin-5-yl)phenyl]-N-(pyridin-4-yl)cyclobutanecarboxamide] |
| 557 | 35.5 | Cc1noc(-c2ccc(NC(=O)C3(c4ccc(-c5cnc(N)nc5)cc4)CCOCC3)nc2)n1 [Example 178, 4-[4-(2-aminopyrimidin-5-yl)phenyl]-N-[5-(3-methyl-1,2,4-oxadiazol-5-yl)pyridin-2-yl]tetrahydro-2H-pyran-4-carboxamide] |
| 388 | 24.7 | N#Cc1ccc(NC(=O)C2(c3ccc(-c4cnc(N)c(CO)c4)cc3)CCOCC2)nc1 [Example 179, 4-{4-[6-amino-5-(hydroxymethyl)pyridin-3-yl]phenyl}-N-(5-cyanopyridin-2-yl)tetrahydro-2H-pyran-4-carboxamide] |
| 402 | 6.3 | CC(C)C(C)(C(=O)Nc1cccnc1)c1ccc(-c2cnc3[nH]ccc3c2)cc1 (centres unmarked) [Example 180, 2,3-dimethyl-N-(pyridin-3-yl)-2-[4-(1H-pyrrolo[2,3-b]pyridin-5-yl)phenyl]butanamide] |
| 1060 | 32.5 | Cc1nc(-c2ccc(NC(=O)C3(c4ccc(-c5cnc(N)c(C)n5)cc4)CCOCC3)nc2)cs1 [Example 182, 4-[4-(5-amino-6-methylpyrazin-2-yl)phenyl]-N-[5-(2-methyl-1,3-thiazol-4-yl)pyridin-2-yl]tetrahydro-2H-pyran-4-carboxamide] |
| 480 | 51.6 | Nc1ncc(-c2ccc(C3(C(=O)Nc4cccnc4)CCC3)cc2)cn1 [Example 183, 1-[4-(2-aminopyrimidin-5-yl)phenyl]-N-(pyridin-3-yl)cyclobutanecarboxamide] |
| 1470 | 39 | CC(C)C(C)(C(=O)Nc1cccnc1)c1ccc(-c2cnc(N)nc2)cc1 (centres unmarked) [Example 184, 2-[4-(2-aminopyrimidin-5-yl)phenyl]-2,3-dimethyl-N-(pyridin-3-yl)butanamide] |
| 955 | 17.5 | Nc1ncc(-c2ccc(C3(C(=O)Nc4ccncn4)CCC3)cc2)cn1 [Example 185, 1-[4-(2-aminopyrimidin-5-yl)phenyl]-N-(pyrimidin-4-yl)cyclobutanecarboxamide] |
| 334 | 3.2 | Cc1cc(NC(=O)C2(c3ccc(-c4cnc(N)nc4)cc3)CCC2)ccn1 [Example 186, 1-[4-(2-aminopyrimidin-5-yl)phenyl]-N-(2-methylpyridin-4-yl)cyclobutanecarboxamide] |
